In US20110086759A1, “CHEMICAL COMPOUNDS” (SYNGENTA CROP PROTECTION, INC., priority 2007, published 2011) one finds pest or weed control data, which are given here for seven compounds.

Holding throughout (format): in vivo
The test system of test [1] is Solanum nigrum (SOLNI). Nature of the test: Pre-emergence biological efficacy, glasshouse pot test. Particulars: 312 h. Summed up: (§1)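 Damage was rated on a 0–100 scale 13 days after treatment, with plants kept at 24/16° C, 14 h light and 65% humidity. The pre-emergence spray, at 1000 or 250 g/ha in acetone/water 50:50 with 0.5% Tween 20, was applied one day after sowing.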

Test [2] relates to Setaria faberi (SETFA). The test is described as above. The note with it: 312 h. Summed up:
as §1

Test [3] concerns Ipomea hederaceae (IPOHE). The test is described as above. The note with it: Ipomoea hederacea, 312 h. Summed up: as §1
For test [4], the system named is Echinochloa crus-galli (ECHCG). The description is as above. The note with it: 312 h. In outline:
as §1

Test [5] relates to Alopecurus myosuroides (ALOMY). The description is as above. The note with it: 312 h. Summed up: as §1
In test [6] the test system is Amaranthus retoflexus (AMARE). Described as above. Particulars: Amaranthus retroflexus, 312 h. Summed up:
as §1

The subject of test [7] is Solanum nigrum (SOLNI). Nature of the test: Post-emergence biological efficacy, glasshouse pot test. The note with it: 312 h. Summed up: (§2)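 Scored 13 days after spraying on a 0 (no damage) to 100 (total damage) scale. Treatment was a post-emergence spray at 1000 or 250 g/ha, from acetone/water 50:50 plus 0.5% Tween 20, onto 8-day-old plants in soil pots. Growth at 24/16° C, 14 h photoperiod, 65% humidity, watered twice daily.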

Test [8] deals with Setaria faberi (SETFA). Described as above. Particulars: 312 h. Summed up: as §2
The subject of test [9] is Ipomea hederaceae (IPOHE). The test is described as above. Particulars: Ipomoea hederacea, 312 h. In outline:
as §2

The test system of test [10] is Echinochloa crus-galli (ECHCG). The description is as above. The note with it: 312 h. Summed up:
as §2

Test [11] deals with Alopecurus myosuroides (ALOMY). The test is described as above. Particulars: 312 h. Summed up:
as §2

The subject of test [12] is Amaranthus retoflexus (AMARE). Described as above. The note with it: Amaranthus retroflexus, 312 h. In outline:
as §2

Setting [13] is: pre-emergence, 1,000 g/ha, evaluated after 13 days (100=total damage; 0=no damage), read-out: Percentage damage SOLNI.
[14] abbreviates: pre-emergence, 1,000 g/ha, evaluated after 13 days (100=total damage; 0=no damage), read-out: Percentage damage SETFA.
The mark [15] stands for this setting: pre-emergence, 1,000 g/ha, evaluated after 13 days (100=total damage; 0=no damage), read-out: Percentage damage IPOHE.
The mark [16] stands for this setting: pre-emergence, 1,000 g/ha, evaluated after 13 days (100=total damage; 0=no damage), read-out: Percentage damage ECHCG.
[17] abbreviates: pre-emergence, 1,000 g/ha, evaluated after 13 days (100=total damage; 0=no damage), read-out: Percentage damage ALOMY.
Setting [18] is: pre-emergence, 1,000 g/ha, evaluated after 13 days (100=total damage; 0=no damage), read-out: Percentage damage AMARE.
Setting [19] is: post-emergence, 1,000 g/ha, evaluated after 13 days (100=total damage; 0=no damage), read-out: Percentage damage caused to weed species, SOLNI.
Where [20] appears, read: post-emergence, 1,000 g/ha, evaluated after 13 days (100=total damage; 0=no damage), read-out: Percentage damage caused to weed species, SETFA.
Where [21] appears, read: post-emergence, 1,000 g/ha, evaluated after 13 days (100=total damage; 0=no damage), read-out: Percentage damage caused to weed species, IPOHE.
The mark [22] stands for this setting: post-emergence, 1,000 g/ha, evaluated after 13 days (100=total damage; 0=no damage), read-out: Percentage damage caused to weed species, ECHCG.
Where [23] appears, read: post-emergence, 1,000 g/ha, evaluated after 13 days (100=total damage; 0=no damage), read-out: Percentage damage caused to weed species, ALOMY.
[24] abbreviates: post-emergence, 1,000 g/ha, evaluated after 13 days (100=total damage; 0=no damage), read-out: Percentage damage caused to weed species, AMARE.
Setting [25] is: pre-emergence, rate 1,000 g/ha, evaluated after 13 days (100=total damage to plant; 0=no damage), read-out: Percentage damage caused to weed species, SOLNI.
[26] abbreviates: pre-emergence, rate 1,000 g/ha, evaluated after 13 days (100=total damage to plant; 0=no damage), read-out: Percentage damage caused to weed species, SETFA.
Where [27] appears, read: pre-emergence, rate 1,000 g/ha, evaluated after 13 days (100=total damage to plant; 0=no damage), read-out: Percentage damage caused to weed species, IPOHE.
The mark [28] stands for this setting: pre-emergence, rate 1,000 g/ha, evaluated after 13 days (100=total damage to plant; 0=no damage), read-out: Percentage damage caused to weed species, ECHCG.
[29] abbreviates: pre-emergence, rate 1,000 g/ha, evaluated after 13 days (100=total damage to plant; 0=no damage), read-out: Percentage damage caused to weed species, ALOMY.
Where [30] appears, read: pre-emergence, rate 1,000 g/ha, evaluated after 13 days (100=total damage to plant; 0=no damage), read-out: Percentage damage caused to weed species, AMARE.
The mark [31] stands for this setting: Rate 1,000 g/ha, post-emergence spray, evaluated after 13 days (100=total damage to plant; 0=no damage to plant), read-out: Percentage damage caused to weed species, post-emergence, SOLNI.
Where [32] appears, read: Rate 1,000 g/ha, post-emergence spray, evaluated after 13 days (100=total damage to plant; 0=no damage to plant), read-out: Percentage damage caused to weed species, post-emergence, SETFA.
[33] abbreviates: Rate 1,000 g/ha, post-emergence spray, evaluated after 13 days (100=total damage to plant; 0=no damage to plant), read-out: Percentage damage caused to weed species, post-emergence, IPOHE.
[34] abbreviates: Rate 1,000 g/ha, post-emergence spray, evaluated after 13 days (100=total damage to plant; 0=no damage to plant), read-out: Percentage damage caused to weed species, post-emergence, ECHCG.
The mark [35] stands for this setting: Rate 1,000 g/ha, post-emergence spray, evaluated after 13 days (100=total damage to plant; 0=no damage to plant), read-out: Percentage damage caused to weed species, post-emergence, ALOMY.
The mark [36] stands for this setting: Rate 1,000 g/ha, post-emergence spray, evaluated after 13 days (100=total damage to plant; 0=no damage to plant), read-out: Percentage damage caused to weed species, post-emergence, AMARE.

Turning to `O=C(O)c1nc(C2CC2)nc(NC2CCCCC2)c1Cl` [Compound 1-35, 5-Chloro-4-cyclohexylamino-2-cyclopropyl-pyrimidine-6-carboxylic acid], the pest or weed control at 1000 g/ha in the test on Solanum nigrum (SOLNI) [1] (setting [13]) was 20%; in the test on Setaria faberi (SETFA) [2] (setting [14]), 0%; in [3] (setting [15]), 0%; in [4] (setting [16]), 10%; in [5] (setting [17]), 10%; in test [6] (setting [18]) it was 50%. Besides, the pest or weed control at 1000 g/ha with Solanum nigrum (SOLNI) [7] (setting [19]) was determined as 30%; with Setaria faberi (SETFA) [8] (setting [20]), 0%; in test [9] (setting [21]), 50%; in test [10] (setting [22]), 10%; in test [11] (setting [23]), 10%; in test [12] (setting [24]) it was 50%.
Regarding `CCN(Cc1ccc(Br)s1)c1nc(C2CC2)nc(C(=O)OC)c1Cl` [Compound 6-142, 4-[N-(5-bromothiophen-2-ylmethyl)-N-ethyl-amino]-5-chloro-2-cyclopropyl-6-methoxycarbonyl-pyrimidine], the pest or weed control at 1000 g/ha was found to be 10% with Solanum nigrum (SOLNI) [1] (setting [25]); 10% in the test with Setaria faberi (SETFA) [2] (setting [26]); 60% in test [3] (setting [27]); 0% in [4] (setting [28]); 0% in [5] (setting [29]); 50% in test [6] (setting [30]). For the same compound, the pest or weed control at 1000 g/ha turned out to be 90% with Solanum nigrum (SOLNI) [7] (setting [31]); 90% in the test on Setaria faberi (SETFA) [8] (setting [32]); 100% in test [9] (setting [33]); 60% in [10] (setting [34]); 30% in test [11] (setting [35]); 100% in test [12] (setting [36]).
For `COC(=O)c1nc(C2CC2)nc(NCc2cc(C(F)(F)F)cc(C(F)(F)F)c2)c1Cl` [Compound 4-108, 4-(3,5-Bis-trifluoro-methylphenyl-methylamino)-5-chloro-2-cyclo-propyl-6-methoxy-carbonylpyrimidine], the pest or weed control at 1000 g/ha in the test with Solanum nigrum (SOLNI) [1] (setting [13]) stood at 0%; in the test on Setaria faberi (SETFA) [2] (setting [14]), 10%; in test [3] (setting [15]), 40%; in test [4] (setting [16]), 0%; in test [5] (setting [17]), 0%; in [6] (setting [18]), 40%. Moreover, the pest or weed control at 1000 g/ha in the test with Solanum nigrum (SOLNI) [7] (setting [19]) was found to be 90%; with Setaria faberi (SETFA) [8] (setting [20]) it was 20%; in [9] (setting [21]), 70%; in [10] (setting [22]), 10%; in test [11] (setting [23]), 10%; in test [12] (setting [24]) it was 50%.
Take `COC(=O)c1nc(-c2ccc(C)cc2Cl)nc(NCc2ccco2)c1Cl` [Compound 238-48, 5-Chloro-2-(2-chloro-4-methylphenyl)-4-(furan-2-yl-methyl-amino)-6-methoxy-carbonylpyrimidine]: the pest or weed control at 1000 g/ha in the test on Solanum nigrum (SOLNI) [1] (setting [25]) was 0%; in the test with Setaria faberi (SETFA) [2] (setting [26]), 10%; in test [3] (setting [27]), 0%; in [4] (setting [28]), 0%; in test [5] (setting [29]) it was 20%; in [6] (setting [30]), 100%. Further, the pest or weed control at 1000 g/ha in the test on Solanum nigrum (SOLNI) [7] (setting [31]) was 30%; in the test with Setaria faberi (SETFA) [8] (setting [32]), 0%; in test [9] (setting [33]), 60%; in test [10] (setting [34]), 0%; in test [11] (setting [35]) it was 10%; in test [12] (setting [36]), 100%.
Take `CCN(Cc1ccccc1)c1nc(C2CC2)nc(C(=O)OC)c1Cl` [Compound 6-60, 5-Chloro-2-cyclopropyl-4-([N-ethyl-N-phenylmethyl]-amino)-6-methoxycarbonyl-pyrimidine]: the pest or weed control at 1000 g/ha in the test with Solanum nigrum (SOLNI) [1] (setting [25]) amounted to 100%; in the test with Setaria faberi (SETFA) [2] (setting [26]) it was 30%; in [3] (setting [27]), 20%; in test [4] (setting [28]) it was 20%; in [5] (setting [29]), 20%; in [6] (setting [30]), 100%. Besides, the pest or weed control at 1000 g/ha in the test with Solanum nigrum (SOLNI) [7] (setting [31]) amounted to 90%; in the test with Setaria faberi (SETFA) [8] (setting [32]), 90%; in test [9] (setting [33]), 100%; in test [10] (setting [34]), 70%; in test [11] (setting [35]) it was 30%; in test [12] (setting [36]), 100%.
As for `COC(=O)c1nc(C2CC2)nc(NC2(/C=C/c3ccccc3)CC2)c1Cl` [4-19 (E), 5-Chloro-2-cyclopropyl-6-methoxycarbonyl-4-[1-(2-phenyl-ethenyl)-cyclo-propylamino]-pyrimidine], the pest or weed control at 1000 g/ha with Solanum nigrum (SOLNI) [1] (setting [13]) is 60%; with Setaria faberi (SETFA) [2] (setting [14]), 20%; in test [3] (setting [15]), 80%; in test [4] (setting [16]), 20%; in [5] (setting [17]), 20%; in test [6] (setting [18]) it was 40%. Further, the pest or weed control at 1000 g/ha with Solanum nigrum (SOLNI) [7] (setting [19]) was found to be 80%; in the test on Setaria faberi (SETFA) [8] (setting [20]), 70%; in test [9] (setting [21]) it was 100%; in test [10] (setting [22]), 40%; in [11] (setting [23]), 20%; in [12] (setting [24]) it was 100%.
With `C=CCN(Cc1ccccc1)c1nc(C2CC2)nc(C(=O)OC)c1Cl` [Compound 151-60, 5-Chloro-2-cyclopropyl-6-methoxycarbonyl-4-(N-phenylmethyl-N-prop-2-en-1-yl-amino)-pyrimidine], the pest or weed control at 1000 g/ha in the test with Solanum nigrum (SOLNI) [1] (setting [25]) turned out to be 10%; in the test on Setaria faberi (SETFA) [2] (setting [26]) it was 10%; in [3] (setting [27]) it was 60%; in test [4] (setting [28]) it was 20%; in test [5] (setting [29]), 20%; in test [6] (setting [30]), 40%. Moreover, the pest or weed control at 1000 g/ha in the test on Solanum nigrum (SOLNI) [7] (setting [31]) is 80%; in the test on Setaria faberi (SETFA) [8] (setting [32]), 80%; in test [9] (setting [33]) it was 70%; in [10] (setting [34]), 40%; in [11] (setting [35]), 20%; in test [12] (setting [36]) it was 100%.
